Data: the supplement of paper PMC6045584
± gives the standard deviation of the averaged measurements.

What was measured:
[1] = compound: Cn1cc(C2=Nc3cc(NC(=O)C(N)C4CCCCC4)cc4c3C2=CNNC4=O)cn1; assay: area under dose-response curve of surviving fraction (unscaled, Aref=0) (surviving fraction x log10(nM)); higher = more resistant; details: exposure time: 5 days; dose range 0.5-1000 nM
Procedure, shortened: (§1)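 Inhibitor was applied to tumour cell lines at eight concentrations (0.5 to 1000 nM) for five days in 384-well plates. Luminescence from CellTiter-Glo, scaled to DMSO-only wells, gave surviving fractions in three screens per line, and these were fitted by 3-parameter logistic regression with the drc R package. The area under the curve is an unscaled activity area. Aref was 0, and dose was on a log10 scale.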

CANERTINIB [2] = compound: T1, C=CC(=O)Nc1cc2c(Nc3ccc(F)c(Cl)c3)ncnc2cc1OCCCN1CCOCC1 [CANERTINIB]; assay: as above; details: exposure time: 5 days; dose range 0.5-1000 nM
Procedure, shortened: as §1

MDV3100 [3] = compound: T2, CNC(=O)c1ccc(N2C(=S)N(c3ccc(C#N)c(C(F)(F)F)c3)C(=O)C2(C)C)cc1F [MDV3100]; assay: as above; details: exposure time: 5 days; dose range 0.5-1000 nM
Procedure, shortened: as §1

AFATINIB [4] = compound: T3, CN(C)C/C=C/C(=O)Nc1cc2c(Nc3ccc(F)c(Cl)c3)ncnc2cc1O[C@H]1CCOC1 [AFATINIB]; assay: as above; details: exposure time: 5 days; dose range 0.5-1000 nM
Procedure, shortened: as §1

SAPACITABINE [5] = compound: T4, CCCCCCCCCCCCCCCC(=O)Nc1ccn([C@@H]2O[C@H](CO)[C@@H](O)[C@@H]2C#N)c(=O)n1 [SAPACITABINE]; assay: as above; details: exposure time: 5 days; dose range 0.5-1000 nM
Procedure, shortened: as §1

SNX-5422 [6] = compound: T5, CC1(C)CC(=O)c2c(C(F)(F)F)nn(-c3ccc(C(N)=O)c(N[C@H]4CC[C@H](OC(=O)CN)CC4)c3)c2C1 [SNX-5422]; assay: as above; details: exposure time: 5 days; dose range 0.5-1000 nM
Procedure, shortened: as §1

BI-2536 [7] = compound: T6, CC[C@@H]1C(=O)N(C)c2cnc(Nc3ccc(C(=O)NC4CCN(C)CC4)cc3OC)nc2N1C1CCCC1 [BI-2536]; assay: as above; details: exposure time: 5 days; dose range 0.5-1000 nM
Procedure, shortened: as §1

TIOGUANINE [8] = compound: T7, Nc1nc2[nH]cnc2c(=S)[nH]1 [TIOGUANINE]; assay: as above; details: exposure time: 5 days; dose range 0.5-1000 nM
Procedure, shortened: as §1

[9] = compound: Cn1cc(C2=Nc3cc(NC(=O)C(N)C4CCCCC4)cc4c3C2=CNNC4=O)cn1; assay: surviving fraction relative to DMSO-only wells; higher = less growth inhibition; details: exposure time: 5 days
Procedure, shortened: (§2)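 After seeding at 250–500 cells per well in 384-well plates and a 24-hour wait, log-phase tumour cell lines were exposed without interruption for five days to inhibitors at 0.5, 1, 5, 10, 50, 100, 500 and 1000 nM. CellTiter-Glo luminescence was recorded after 10 minutes at room temperature. Viability is reported as surviving fraction, the luminescence normalised to the median of DMSO-only wells.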

CANERTINIB [10] = compound: T1, CANERTINIB; assay: as above; details: exposure time: 5 days
Procedure, shortened: as §2

MDV3100 [11] = compound: T2, MDV3100; assay: as above; details: exposure time: 5 days
Procedure, shortened: as §2

AFATINIB [12] = compound: T3, AFATINIB; assay: as above; details: exposure time: 5 days
Procedure, shortened: as §2

SAPACITABINE [13] = compound: T4, SAPACITABINE; assay: as above; details: exposure time: 5 days
Procedure, shortened: as §2

SNX-5422 [14] = compound: T5, SNX-5422; assay: as above; details: exposure time: 5 days
Procedure, shortened: as §2

BI-2536 [15] = compound: T6, BI-2536; assay: as above; details: exposure time: 5 days
Procedure, shortened: as §2

TIOGUANINE [16] = compound: T7, TIOGUANINE; assay: as above; details: exposure time: 5 days
Procedure, shortened: as §2

## HMLE3 BREAST
[1]
  area under dose-response curve: 2.79
CANERTINIB [2]
  area under dose-response curve: 2.91
MDV3100 [3]
  area under dose-response curve: 3.23
AFATINIB [4]
  area under dose-response curve: 3.07
SAPACITABINE [5]
  area under dose-response curve: 2.03
SNX-5422 [6]
  area under dose-response curve: 1.89
BI-2536 [7]
  area under dose-response curve: 1.26
TIOGUANINE [8]
  area under dose-response curve: 3.06
[9]; 0.5 nM
  surviving fraction: 1.02 ± 0.013
[9]; 1 nM
  surviving fraction: 0.984 ± 0.069
[9]; 5 nM
  surviving fraction: 1.01 ± 0.069
[9]; 10 nM
  surviving fraction: 1.05 ± 0.1
[9]; 50 nM
  surviving fraction: 0.928 ± 0.015
[9]; 100 nM
  surviving fraction: 0.924 ± 0.05
[9]; 500 nM
  surviving fraction: 0.319 ± 0.049
[9]; 1000 nM
  surviving fraction: 0.0807 ± 0.0095
CANERTINIB [10]; 0.5 nM
  surviving fraction: 0.883 ± 0.0092
CANERTINIB [10]; 1 nM
  surviving fraction: 0.909 ± 0.082
CANERTINIB [10]; 5 nM
  surviving fraction: 0.891 ± 0.044
CANERTINIB [10]; 10 nM
  surviving fraction: 0.898 ± 0.018
CANERTINIB [10]; 50 nM
  surviving fraction: 0.913 ± 0.024
CANERTINIB [10]; 100 nM
  surviving fraction: 0.838 ± 0.14
CANERTINIB [10]; 500 nM
  surviving fraction: 0.847 ± 0.028
CANERTINIB [10]; 1000 nM
  surviving fraction: 0.872 ± 0.1
MDV3100 [11]; 0.5 nM
  surviving fraction: 0.981 ± 0.05
MDV3100 [11]; 1 nM
  surviving fraction: 0.951 ± 0.018
MDV3100 [11]; 5 nM
  surviving fraction: 0.984 ± 0.026
MDV3100 [11]; 10 nM
  surviving fraction: 0.946 ± 0.049
MDV3100 [11]; 50 nM
  surviving fraction: 0.975 ± 0.12
MDV3100 [11]; 100 nM
  surviving fraction: 1 ± 0.09
MDV3100 [11]; 500 nM
  surviving fraction: 0.98 ± 0.058
MDV3100 [11]; 1000 nM
  surviving fraction: 1.03 ± 0.083
AFATINIB [12]; 0.5 nM
  surviving fraction: 0.989 ± 0.042
AFATINIB [12]; 1 nM
  surviving fraction: 1.02 ± 0.034
AFATINIB [12]; 5 nM
  surviving fraction: 0.993 ± 0.054
AFATINIB [12]; 10 nM
  surviving fraction: 0.904 ± 0.074
AFATINIB [12]; 50 nM
  surviving fraction: 0.905 ± 0.035
AFATINIB [12]; 100 nM
  surviving fraction: 0.946 ± 0.04
AFATINIB [12]; 500 nM
  surviving fraction: 0.842 ± 0.087
AFATINIB [12]; 1000 nM
  surviving fraction: 0.77 ± 0.021
SAPACITABINE [13]; 0.5 nM
  surviving fraction: 0.846 ± 0.045
SAPACITABINE [13]; 1 nM
  surviving fraction: 0.738 ± 0.037
SAPACITABINE [13]; 5 nM
  surviving fraction: 0.898 ± 0.017
SAPACITABINE [13]; 10 nM
  surviving fraction: 0.244 ± 0.014
SAPACITABINE [13]; 50 nM
  surviving fraction: 0.892 ± 0.095
SAPACITABINE [13]; 100 nM
  surviving fraction: 0.67 ± 0.11
SAPACITABINE [13]; 500 nM
  surviving fraction: 0.344 ± 0.039
SAPACITABINE [13]; 1000 nM
  surviving fraction: 0.175 ± 0.0071
SNX-5422 [14]; 0.5 nM
  surviving fraction: 0.975 ± 0.02
SNX-5422 [14]; 1 nM
  surviving fraction: 1 ± 0.054
SNX-5422 [14]; 5 nM
  surviving fraction: 0.999 ± 0.074
SNX-5422 [14]; 10 nM
  surviving fraction: 1.09 ± 0.032
SNX-5422 [14]; 50 nM
  surviving fraction: 0.0933 ± 0.011
SNX-5422 [14]; 100 nM
  surviving fraction: 0.0567 ± 0.0045
SNX-5422 [14]; 500 nM
  surviving fraction: 0.0233 ± 0.0015
SNX-5422 [14]; 1000 nM
  surviving fraction: 0.027 ± 0.001
BI-2536 [15]; 0.5 nM
  surviving fraction: 1.04 ± 0.14
BI-2536 [15]; 1 nM
  surviving fraction: 1.09 ± 0.1
BI-2536 [15]; 5 nM
  surviving fraction: 0.819 ± 0.076
BI-2536 [15]; 10 nM
  surviving fraction: 0.216 ± 0.0056
BI-2536 [15]; 50 nM
  surviving fraction: 0.0467 ± 0.014
BI-2536 [15]; 100 nM
  surviving fraction: 0.0453 ± 0.015
BI-2536 [15]; 500 nM
  surviving fraction: 0.0567 ± 0.011
BI-2536 [15]; 1000 nM
  surviving fraction: 0.063 ± 0.007
TIOGUANINE [16]; 0.5 nM
  surviving fraction: 0.914 ± 0.068
TIOGUANINE [16]; 1 nM
  surviving fraction: 0.902 ± 0.015
TIOGUANINE [16]; 5 nM
  surviving fraction: 0.95 ± 0.028
TIOGUANINE [16]; 10 nM
  surviving fraction: 0.974 ± 0.019
TIOGUANINE [16]; 50 nM
  surviving fraction: 0.97 ± 0.1
TIOGUANINE [16]; 100 nM
  surviving fraction: 0.945 ± 0.072
TIOGUANINE [16]; 500 nM
  surviving fraction: 0.905 ± 0.049
TIOGUANINE [16]; 1000 nM
  surviving fraction: 0.851 ± 0.09

## HS57T LUNG
[1]
  area under dose-response curve: 2.49
CANERTINIB [2]
  area under dose-response curve: 2.92
MDV3100 [3]
  area under dose-response curve: 3.03
AFATINIB [4]
  area under dose-response curve: 3.15
SAPACITABINE [5]
  area under dose-response curve: 2.37
SNX-5422 [6]
  area under dose-response curve: 2.06
BI-2536 [7]
  area under dose-response curve: 1.08
TIOGUANINE [8]
  area under dose-response curve: 3.23
